Experimental data taken from patent US7364866B2, “Drosophila G protein coupled receptors, nucleic acids, and methods related to the same” (Pharmacia & Upjohn Company, priority 1999, dated 2008).
Residues, ends and D or L forms follow the SMILES beside them. No end group written: not given here.

Tests used:
DmGPCR5 [1] = molecular target: T1, DmGPCR5 (Drosophila melanogaster, UniProt P30975, L70Q); assay: cell-based
From the text: The photoprotein luciferase provides another useful tool for assaying for modulators of DmGPCR activity. Cells (e.g., CHO cells or COS7 cells) are transiently co-transfected with both a DmGPCR expression construct (e.g., DmGPCR in pzeoSV2) and a reporter construct which includes a gene for the luciferase protein downstream from a transcription factor binding site, such as the cAMP-response element (CRE), AP-1, or NF-kappa B. Agonist binding to receptors coupled to the Gs subtype of G proteins leads to increases in cAMP, thereby activating the CRE transcription factor and resulting in expression of the luciferase gene. […] Luciferase activity may be quantitatively measured using, e.g., luciferase assay reagents that are commercially available from Promega (Madison, Wis.).
In one exemplary assay, CHO cells are plated in 24-well culture dishes at a density of 100,000 cells/well one day prior to transfection and cultured at 37° C. in MEM (Gibco/BRL) supplemented with 10% fetal bovine serum, 2 mM glutamine, 10 μg/ml penicillin, and 10 μg/ml streptomycin. […] After incubation for 15 minutes at room temperature, 15 μl of the lysate is mixed with 50 μl of substrate solution (Promega) in an opaque-white, 96-well plate, and the luminescence is read immediately on a Wallace model 1450 MicroBeta scintillation and luminescence counter (Wallace Instruments, Gaithersburg, Md.). […]

DmGPCR5 [2] = molecular target: T1, DmGPCR5; assay: biochemical; set-up: expressed in transfected cells; host or cells: CHO-1000A (so in the source), transient; settings: for maximal stimulation of GTPγS binding above basal level / EC50, stimulation of GTPγS binding: DmGPCR5; for maximal stimulation of GTPγS binding above basal level: dose-response; for EC50, stimulation of GTPγS binding: given in words
Experimental: The transfected cells were washed once with ice-cold Dulbecco's phosphate buffered saline (PBS), 5 ml per 10 cm plate, and scraped into 5 ml of the same buffer. Cell suspensions from multiple plates were combined and centrifuged at 500×g for 10 min at 4° C. The cell pellet was reconstituted in ice-cold TEE (25 mM TRIS, 5 mM EGTA, 5 mM EDTA). Convenient aliquots were snap-frozen in liquid nitrogen and stored at −70° C. After thawing, the cells were homogenized and centrifuged at 4° C., 500×g for 5 minutes to pellet nuclei and unbroken cells. The supernatant was centrifuged at 47,000×g for 30 minutes at 4° C. The membrane pellet was washed once with TEE, resuspended in 20 mM HEPES, pH 7.4, 100 mM NaCl, 10 mM MgCl2, 1 mM EDTA (assay buffer), aliquoted and frozen in liquid nitrogen. Membrane aliquots were stored at −70° C. Membrane protein concentration was determined using the BCA Protein Assay Reagent from Pierce (Rockford, Ill.) and BSA as standard.
Initially, reaction mixtures were prepared in 96-well polypropylene plates (Nunc). In each well, peptide aqueous solution (20 μl, 10×), or water controls (20 μl), 18.2 μM GDP in assay buffer (0.11 ml, 10 μM final), and membranes suspended in assay buffer (50 μl, 10 μg membrane protein) were mixed and placed on ice. […] Then the membranes were washed 3 times with 0.25 ml ice-cold wash buffer/well (10 mM HEPES, 10 mM MgCl2, pH 7.4) and vacuum filtered. […] Each treatment was carried out in triplicates.
Ligand-induced stimulation of [^35S]GTPγS binding was expressed as fold increase over the basal activity with no ligand added. Each treatment was run either in triplicate, or, on occasion, in duplicate, and the binding (cpm) was calculated as means +/− standard deviations. Dose-response curves for the receptor/ligand systems were analyzed using a non-linear least square SAS model, y=Bmax X/(Kd+X). Other dose-response curves were analyzed using Prism (GraphPad Software, Inc. San Diego, Calif.) and the following equation y=Bottom+(Top−Bottom)/(1+10^LogEC50-X).
(§1) Originally, we have chosen the GTPγS assay as a functional assay because agonist-driven stimulation of GTPγS reflects early events in the DmGPCR activation cascade, regardless of further activation pathways of various down-stream signaling events. This appears especially useful for the assessment of possible activation of orphan DmGPCRs with unknown functions and unknown signaling pathways. The GTPγS assay was carried out with membranes prepared from CHO cells transiently transfected with DNA encoding Drosophila GPCRs using a 96-well MultiScreen G/FB filter plates and a MultiScreen vacuum manifold (Millipore) for filtration. Since the GTPγS assay is known to poorly recognize GPCRs coupled to the Gq class of G-proteins, a Ca^+2 mobilization assay based on a FLIPR readout was used as well to evaluate Gq-coupled orphan GPCRs in CHO cells transiently transfected with DNA encoding Drosophila GPCRs.

DmGPCR7 = assay: FLIPR analysis of intracellular calcium release; format: cell-based, Drosophila melanogaster; settings: DmGPCR7 in CHO-10001A cells; peptides with C-terminal HSWGa; given in words
Experimental: (§2) Changes in intracellular calcium levels are another recognized indicator of G protein-coupled receptor activity, and such assays can be employed to screen for modulators of DmGPCR activity. For example, CHO cells stably transfected with a DmGPCR expression vector are plated at a density of 4×10^4 cells/well in Packard black-walled, 96-well plates specially designed to discriminate fluorescence signals emanating from the various wells on the plate. The cells are incubated for 60 minutes at 37° C. in modified Dulbecco's PBS (D-PBS) containing 36 mg/L pyruvate and 1 g/L glucose and one of four calcium indicator dyes (Fluo-3™ AM, Fluo-4™ AM, Calcium Green™-1 AM, or Oregon Green™ 488 BAPTA-1 AM), each at a concentration of 4 μM. Plates are washed once with modified D-PBS and incubated for 10 minutes at 37° C. to remove residual dye from the cellular membrane. In addition, a series of washes with modified D-PBS is performed immediately prior to activation of the calcium response.
A calcium response is initiated by the addition of one or more candidate receptor agonist compounds, calcium ionophore A23187 (10 μM; positive control), or ATP (4 μM; positive control). Fluorescence is measured by Molecular Device's FLIPR with an argon laser (excitation at 488 nm). (See, e.g., Kuntzweiler et al., Drug Dev. Res., 1998, 44(1), 14-20). The F-stop for the detector camera was set at 2.5, and the length of exposure was 0.4 milliseconds. Basal fluorescence of cells was measured for 20 seconds prior to addition of candidate agonist, ATP, or A23187, and the basal fluorescence level was subtracted from the response signal. The calcium signal is measured for approximately 200 seconds, taking readings every two seconds. Calcium ionophore A23187 and ATP increase the calcium signal 200% above baseline levels. In general, activated GPCRs increase the calcium signal approximately 10-15% above baseline signal.
as §1

DmGPCR9 = assay: calcium mobilization assay (FLIPR); format: cell-based, Drosophila melanogaster; settings: tested at 10 μM
Experimental: as §2, with “Plates are washed once with modified D-PBS and incubated for 10 minutes at 37° C. to remove residual dye from the cellular membrane. In addition, a series of washes with modified D-PBS is performed immediately prior to activation of the calcium response.” left out
(§3) A calcium response is initiated by the addition of one or more candidate receptor agonist compounds, calcium ionophore A23187 (10 μM; positive control), or ATP (4 μM; positive control). Fluorescence is measured by Molecular Device's FLIPR with an argon laser (excitation at 488 nm). […] Basal fluorescence of cells was measured for 20 seconds prior to addition of candidate agonist, ATP, or A23187, and the basal fluorescence level was subtracted from the response signal. The calcium signal is measured for approximately 200 seconds, taking readings every two seconds. […]

[3] = tested on: CHO cells stably transfected with a DmGPCR expression vector; assay: Intracellular calcium measurement using FLIPR, positive controls; format: cell-based, Chinese hamster; settings: positive controls: A23187 10 μM, ATP 4 μM
Experimental: as §2, with “Plates are washed once with modified D-PBS and incubated for 10 minutes at 37° C. to remove residual dye from the cellular membrane. In addition, a series of washes with modified D-PBS is performed immediately prior to activation of the calcium response.” left out
as §3

T1 sequence (P30975 whole entry L70Q): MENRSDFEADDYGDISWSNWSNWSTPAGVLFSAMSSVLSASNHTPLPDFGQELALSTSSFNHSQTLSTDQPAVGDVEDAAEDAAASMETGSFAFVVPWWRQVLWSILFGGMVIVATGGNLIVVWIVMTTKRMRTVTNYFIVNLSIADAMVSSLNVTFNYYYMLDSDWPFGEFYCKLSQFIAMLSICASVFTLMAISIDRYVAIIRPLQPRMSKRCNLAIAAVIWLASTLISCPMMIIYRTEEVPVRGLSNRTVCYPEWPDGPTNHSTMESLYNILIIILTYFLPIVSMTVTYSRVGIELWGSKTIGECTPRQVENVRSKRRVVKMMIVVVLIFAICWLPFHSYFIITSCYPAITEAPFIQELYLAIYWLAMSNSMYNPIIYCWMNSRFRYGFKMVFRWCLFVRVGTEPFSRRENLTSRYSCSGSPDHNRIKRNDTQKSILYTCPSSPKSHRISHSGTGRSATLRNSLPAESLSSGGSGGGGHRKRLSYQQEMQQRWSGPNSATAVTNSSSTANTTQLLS
Chain of DmGPCR7 (as listed by the source): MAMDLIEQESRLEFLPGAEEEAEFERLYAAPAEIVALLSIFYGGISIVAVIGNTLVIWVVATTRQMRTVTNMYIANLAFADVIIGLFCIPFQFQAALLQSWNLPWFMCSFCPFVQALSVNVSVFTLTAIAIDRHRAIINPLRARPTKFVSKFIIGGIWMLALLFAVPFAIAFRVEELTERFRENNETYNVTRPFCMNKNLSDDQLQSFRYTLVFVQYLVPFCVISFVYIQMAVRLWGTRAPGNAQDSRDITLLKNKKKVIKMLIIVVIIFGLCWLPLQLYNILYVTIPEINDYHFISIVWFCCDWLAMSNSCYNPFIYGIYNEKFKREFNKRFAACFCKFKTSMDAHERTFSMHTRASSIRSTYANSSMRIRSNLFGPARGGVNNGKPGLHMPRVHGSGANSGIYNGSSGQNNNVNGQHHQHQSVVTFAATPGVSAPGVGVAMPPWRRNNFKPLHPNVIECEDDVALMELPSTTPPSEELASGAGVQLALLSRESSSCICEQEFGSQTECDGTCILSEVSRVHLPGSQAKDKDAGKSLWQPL
Chain of DmGPCR9 (as listed by the source): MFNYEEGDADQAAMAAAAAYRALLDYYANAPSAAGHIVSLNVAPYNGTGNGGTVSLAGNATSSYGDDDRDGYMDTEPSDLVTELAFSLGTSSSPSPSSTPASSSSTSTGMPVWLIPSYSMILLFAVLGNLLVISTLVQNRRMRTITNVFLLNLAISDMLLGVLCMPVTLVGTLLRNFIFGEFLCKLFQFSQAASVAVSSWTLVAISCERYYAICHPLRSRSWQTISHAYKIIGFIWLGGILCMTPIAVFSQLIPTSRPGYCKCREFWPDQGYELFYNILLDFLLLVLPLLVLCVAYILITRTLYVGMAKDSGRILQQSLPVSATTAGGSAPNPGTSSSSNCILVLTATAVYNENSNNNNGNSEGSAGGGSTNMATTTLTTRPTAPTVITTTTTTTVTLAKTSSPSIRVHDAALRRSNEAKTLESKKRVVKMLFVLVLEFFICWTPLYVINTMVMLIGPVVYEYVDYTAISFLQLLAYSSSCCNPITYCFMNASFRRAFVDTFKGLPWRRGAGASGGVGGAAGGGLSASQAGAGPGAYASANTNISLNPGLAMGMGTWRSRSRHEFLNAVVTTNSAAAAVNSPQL

## CSCC[C@H](NC(=O)CNC(=O)[C@H](CC(C)C)NC(=O)[C@H](Cc1ccccc1)NC(=O)CNC(=O)[C@H](CC(N)=O)NC(=O)[C@@H]1CCCN1C(=O)[C@H](C)N)C(=O)N[C@@H](CCCNC(=N)N)C(N)=O [DTK-5, APNGFLGMR-NH2] (H-APNGFLGMR-NH2)
DmGPCR5 [1]
  EC50: 197 nM
DmGPCR5 [2]
  EC50: 250 to 500 nM
  maximal stimulation of GTPγS binding above basal level: ca. 1.5 fold

## CC(C)C[C@H](NC(=O)CNC(=O)[C@H](Cc1ccc(O)cc1)NC(=O)[C@H](Cc1ccccc1)NC(=O)[C@H](C)NC(=O)[C@H](CC(C)C)NC(=O)[C@@H]1CCCN1C(=O)[C@H](C)N)C(=O)N[C@@H](CCCNC(=N)N)C(N)=O [DTK-2, APLAFYGLR-NH2] (H-APLAFYGLR-NH2)
DmGPCR5 [1]
  EC50: 1060 nM
DmGPCR5 [2]
  EC50, stimulation of GTPγS binding: low micromolar range

## NPFHSWG [Culekinin, NPFHSWGa]
DmGPCR7
  EC50, intracellular calcium release (FLIPR): picomoloar to subnanomolar range

## FDDYGHLRF-NH2 [unsulfated counterpart of FDDY(SO3H)GHLRF-NH2]
DmGPCR9
  calcium signal: very weak calcium signal

## CSCC[C@H](NC(=O)CNC(=O)[C@H](Cc1ccc(O)cc1)NC(=O)[C@H](Cc1ccccc1)NC(=O)[C@H](C)NC(=O)[C@H](CC(C)C)NC(=O)[C@@H]1CCCN1C(=O)[C@H](C)N)C(=O)N[C@@H](CCCNC(=N)N)C(N)=O [Met8-DTK-2, APLAFYGMR-NH2] (H-APLAFYGMR-NH2)
DmGPCR5 [2]
  maximal stimulation of GTPγS binding above basal level: ca. 1.5 fold

## CSCC[C@H](NC(=O)CNC(=O)[C@@H](NC(=O)[C@H](Cc1ccccc1)NC(=O)CNC(=O)[C@@H](NC(=O)[C@@H]1CCCN1C(=O)[C@H](C)N)[C@@H](C)O)[C@@H](C)O)C(=O)N[C@@H](CCCNC(=N)N)C(N)=O [DTK-3, APTGFTGMR-NH2] (H-APTGFTGMR-NH2)
DmGPCR5 [2]
  EC50: 250 to 500 nM

## QRFHSWG [DLK-2a, QRFHSWGa]
DmGPCR7
  EC50, intracellular calcium release (FLIPR): picomoloar to subnanomolar range

## APVNSFVGMR [DTK-4, APVNSFVGMR-NH2]
DmGPCR5 [2]
  EC50, stimulation of GTPγS binding: low micromolar range

## CNc1ccc2oc(C[C@H]3O[C@@]4(CC[C@H]3C)O[C@H]([C@H](C)C(=O)c3ccc[nH]3)[C@H](C)C[C@H]4C)nc2c1C(=O)O [A23187]
[3]
  increase of the calcium signal above baseline levels: 200%
